According to PubChem BioAssay AID743371 (Vanderbilt Specialized Chemistry Center, 2014):
The source made the active and inactive calls. The rule behind the calls is not given here.

Molecular target: D(4) dopamine receptor (Homo sapiens) (UniProt P21917)
Experiment: dopamine D4 receptor antagonists (AID 743371)
Settings: D4 receptor antagonist assay; at 10 µM; active compounds read high

In the case of O=C(Nc1ccccc1F)N1CCOC(CCc2ccccc2)C1 (stereo not given), the inhibition is reported as 4% (inactive).

In the case of Cc1cccc(S(=O)(=O)N2CCOC(CCc3ccccc3)C2)c1 (stereo not given), the inhibition is reported as 13% (inactive).

For Cc1cc(C)c(C(=O)N2CCOC(CCc3ccccc3)C2)c(C)c1 (stereo not given), the inhibition was -8% (inactive).

O=C(c1ccc2ccccc2n1)N1CCOC(CCc2ccccc2)C1 (stereo not given) was tested, and the inhibition was -1% (inactive).

Work on Clc1ccc(CN2CCO[C@H](CCc3ccccc3)C2)cc1 yielded an inhibition of 96%.

For O=C(Nc1ccccc1)N1CCOC(CCc2ccccc2)C1 (stereo not given), the inhibition was 3% (inactive).

Cc1ccccc1NC(=O)N1CCOC(CCc2ccccc2)C1 (stereo not given) was tested, and the inhibition was 15% (inactive).

In the case of O=C(c1ccc2c(c1)OCCO2)N1CCOC(CCc2ccccc2)C1 (stereo not given), the inhibition is reported as -4% (inactive).

For Cc1ccc(NC(=O)N2CCOC(CCc3ccccc3)C2)cc1 (stereo not given), the inhibition was 12% (inactive).

In the case of O=C(c1ccc(Cl)cc1)N1CCOC(CCc2ccccc2)C1 (stereo not given), the inhibition is reported as 7% (inactive).

In the case of c1ccc(CCC2CN(Cc3cccnc3)CCO2)cc1 (stereo not given), the inhibition is reported as 35% (inactive).

In the case of O=S(=O)(c1ccccc1OC(F)(F)F)N1CCOC(CCc2ccccc2)C1 (stereo not given), the inhibition is reported as 6% (inactive).

For O=C(c1cc(F)c(F)c(F)c1)N1CCOC(CCc2ccccc2)C1 (stereo not given), the inhibition was 10% (inactive).

For O=C(Nc1ccccc1Cl)N1CCOC(CCc2ccccc2)C1 (stereo not given), the inhibition was 2% (inactive).

O=S(=O)(c1ccccc1)N1CCOC(CCc2ccccc2)C1 (stereo not given) was tested, and the inhibition was 2% (inactive).

For c1ccc(CCC2CN(Cc3ccccn3)CCO2)cc1 (stereo not given), the inhibition was 23% (inactive).

O=C(c1ccccc1)N1CCOC(CCc2ccccc2)C1 (stereo not given) was tested, and the inhibition was 5% (inactive).

With O=C(Nc1ccc(F)cc1)N1CCOC(CCc2ccccc2)C1 (stereo not given) the inhibition was 5% (inactive).

For O=C(c1cccnc1)N1CCOC(CCc2ccccc2)C1 (stereo not given), the inhibition was 18% (inactive).

With O=C(Nc1cccc(F)c1)N1CCOC(CCc2ccccc2)C1 (stereo not given) the inhibition was -11% (inactive).

With COc1ccc(NC(=O)N2CCOC(CCc3ccccc3)C2)cc1 (stereo not given) the inhibition was -2% (inactive).

For O=S(=O)(c1cccc(F)c1)N1CCOC(CCc2ccccc2)C1 (stereo not given), the inhibition was 13% (inactive).

With FC(F)(F)Oc1ccc(CN2CCO[C@@H](CCc3ccccc3)C2)cc1 the inhibition was 25% (inactive).

Compound FC(F)(F)Oc1ccc(CN2CCO[C@H](CCc3ccccc3)C2)cc1 has an inhibition of 96%.

c1ccc(CCC2CN(Cc3ccncc3)CCO2)cc1 (stereo not given) was tested, and the inhibition was 13% (inactive).

For c1ccc(CCC2CN(c3ccccc3)CCO2)cc1 (stereo not given), the inhibition was 5% (inactive).

With Cn1c(N2CCOC(CCc3ccccc3)C2)nc2ccccc21 (stereo not given) the inhibition was 17% (inactive).

In the case of Cc1ccc(N2CCOC(CCc3ccccc3)C2)cc1 (stereo not given), the inhibition is reported as 6% (inactive).

In the case of O=C(c1cccc(F)c1)N1CCOC(CCc2ccccc2)C1 (stereo not given), the inhibition is reported as 1% (inactive).

Work on Fc1ccc(CN2CCOC(CCc3ccccc3)C2)cc1 (stereo not given) yielded an inhibition of 88%.

O=C(c1ccno1)N1CCOC(CCc2ccccc2)C1 (stereo not given) was tested, and the inhibition was -14% (inactive).

COc1ccc(CN2CCOC(CCc3ccccc3)C2)cc1 (stereo not given) showed an inhibition of 98%.

Fc1cccc(F)c1CN1CCOC(CCc2ccccc2)C1 (stereo not given) gave an inhibition of 51%.

For FC(F)(F)Oc1cccc(CN2CCOC(CCc3ccccc3)C2)c1 (stereo not given), the inhibition was 88%.

With O=S(=O)(c1ccccc1F)N1CCOC(CCc2ccccc2)C1 (stereo not given) the inhibition was 9% (inactive).

Clc1ccc(CN2CCO[C@@H](CCc3ccccc3)C2)cc1 was tested, and the inhibition was 39% (inactive).

COc1ccc(CN2CCO[C@H](CCc3ccccc3)C2)cc1 was tested, and the inhibition was 86%.

With Cc1ccc(C(=O)N2CCOC(CCc3ccccc3)C2)cc1 (stereo not given) the inhibition was 17% (inactive).

For O=C(Nc1ccc(Cl)cc1)N1CCOC(CCc2ccccc2)C1 (stereo not given), the inhibition was 16% (inactive).

In the case of O=S(=O)(c1ccccc1Cl)N1CCOC(CCc2ccccc2)C1 (stereo not given), the inhibition is reported as 13% (inactive).

COc1ccc(CN2CCO[C@@H](CCc3ccccc3)C2)cc1 was tested, and the inhibition was 44% (inactive).

c1ccc(CCC2CN(Cc3ccccc3)CCO2)cc1 (stereo not given) gave an inhibition of 74%.

FC(F)(F)Oc1ccc(CN2CCOC(CCc3ccccc3)C2)cc1 (stereo not given) gave an inhibition of 94%.

In the case of CC(C)(C)c1ccc(S(=O)(=O)N2CCOC(CCc3ccccc3)C2)cc1 (stereo not given), the inhibition is reported as 5% (inactive).

For O=S(=O)(c1ccc2ccccc2c1)N1CCOC(CCc2ccccc2)C1 (stereo not given), the inhibition was -3% (inactive).

O=S(=O)(c1ccc(F)cc1)N1CCOC(CCc2ccccc2)C1 (stereo not given) was tested, and the inhibition was -8% (inactive).

With c1ccc(CCC2CN(c3ccc4ncccc4c3)CCO2)cc1 (stereo not given) the inhibition was 16% (inactive).

For Clc1ccc(CN2CCOC(CCc3ccccc3)C2)cc1 (stereo not given), the inhibition was 97%.

With COc1ccc(C(=O)N2CCOC(CCc3ccccc3)C2)cc1 (stereo not given) the inhibition was -5% (inactive).

Work on Cc1ccccc1CN1CCOC(CCc2ccccc2)C1 (stereo not given) yielded an inhibition of 54%.
